Assay results published in US20230286958A1, “PLASMA KALLIKREIN INHIBITORS” (Merck Sharp & Dohme LLC, priority 2020, published 2023).

Tests used:
Human plasma kallikrein = Human plasma kallikrein (Homo sapiens (Human), UniProt P03952); experiment: Kallikrein Assay (fluorogenic substrate Acetyl-K-P-R-AFC); format: biochemical; conditions: Plasma Kallikrein (PKal)
Experimental: (§1) The effectiveness of a compound of the present invention as an inhibitor of Kallikrein can be determined using a relevant purified serine protease, and an appropriate synthetic substrate. The rate of hydrolysis of the chromogenic or fluorogenic substrate by the relevant serine protease was measured both in the absence and presence of compounds of the present invention. Assays were conducted at room temperature or at 37° C. […] A decrease in the rate of fluorescence change in the presence of inhibitor is indicative of enzyme inhibition. Such methods are known to one skilled in the art. The results of this assay are expressed as the half-maximal inhibitory concentrations (IC50), or the inhibitory constant, Ki.
Kallikrein determinations were made in 50 mM HEPES buffer at pH 7.4 containing 150 mM NaCl, 5 mM CaC12, and 0.1% PEG 8000 (polyethylene glycol; Fisher Scientific). Determinations were made using purified Human plasma kallikrein at a final concentration of 0.5 nM (Enzyme Research Laboratories) and the synthetic substrate, Acetyl-K-P-R-AFC (Sigma # C6608) at a concentration of […].
Times required to achieve equilibration between enzyme and inhibitor were determined in control experiments. […] IC50 was determined by inflection point from a four parameter logistic curve fit. Ki was calculated using the Cheng Prusoff equation, Ki = IC50/(1+([S]/Km)).

human Factor XIa = human Factor XIa (Homo sapiens (Human), UniProt P03951); experiment: Factor XIa Assay (fluorogenic substrate GPR-AFC); format: biochemical; conditions: Factor XIa (FXIa)
Sequence of human Factor XIa (P03951 388-625 limits assumed): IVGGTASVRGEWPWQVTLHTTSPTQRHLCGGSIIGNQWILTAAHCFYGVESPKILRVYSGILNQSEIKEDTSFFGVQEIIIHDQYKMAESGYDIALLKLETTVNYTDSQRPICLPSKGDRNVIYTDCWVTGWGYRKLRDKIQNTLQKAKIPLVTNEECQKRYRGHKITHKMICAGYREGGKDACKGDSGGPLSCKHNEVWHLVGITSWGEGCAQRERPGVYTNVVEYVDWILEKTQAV
Sequence of human Factor XIa (P03951 19-387 partner limits assumed): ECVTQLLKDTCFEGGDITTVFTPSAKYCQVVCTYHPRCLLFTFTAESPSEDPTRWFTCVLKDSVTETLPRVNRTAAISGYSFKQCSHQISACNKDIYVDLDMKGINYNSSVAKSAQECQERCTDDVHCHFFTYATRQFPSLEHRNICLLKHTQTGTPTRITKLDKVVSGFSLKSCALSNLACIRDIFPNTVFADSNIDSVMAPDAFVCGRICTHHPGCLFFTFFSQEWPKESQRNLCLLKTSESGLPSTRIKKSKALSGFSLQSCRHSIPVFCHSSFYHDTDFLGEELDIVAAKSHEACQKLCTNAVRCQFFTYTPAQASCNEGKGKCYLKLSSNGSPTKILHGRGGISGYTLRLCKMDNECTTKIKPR
Experimental: as §1, with “Coagulation Factor XIa” for “Kallikrein”
Compounds were pre-incubated for 30 minutes at 25° C. with human (0.04 nM) Factor XIa in 50 mM HEPES buffer with 150 mM sodium chloride, 5 mM calcium chloride, 0.1% PEG 8000, pH 7.4. […] The % inhibition for each data point was calculated from the data and analyzed using the log (inhibitor) vs. response four parameters equation to determine the half-maximal inhibitory concentrations (IC50). The IC50 were converted to equilibrium inhibitory constants (Ki) using the Cheng-Prusoff equation.

Sequence of Human plasma kallikrein (P03952 391-638): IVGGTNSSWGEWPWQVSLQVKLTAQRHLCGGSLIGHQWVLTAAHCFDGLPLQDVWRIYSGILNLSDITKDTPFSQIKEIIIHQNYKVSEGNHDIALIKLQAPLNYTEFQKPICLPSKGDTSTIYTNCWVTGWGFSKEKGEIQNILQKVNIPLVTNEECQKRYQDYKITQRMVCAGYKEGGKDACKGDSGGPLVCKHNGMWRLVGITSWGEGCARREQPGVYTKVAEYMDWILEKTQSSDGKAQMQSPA
Sequence of Human plasma kallikrein (P03952 20-390 partner): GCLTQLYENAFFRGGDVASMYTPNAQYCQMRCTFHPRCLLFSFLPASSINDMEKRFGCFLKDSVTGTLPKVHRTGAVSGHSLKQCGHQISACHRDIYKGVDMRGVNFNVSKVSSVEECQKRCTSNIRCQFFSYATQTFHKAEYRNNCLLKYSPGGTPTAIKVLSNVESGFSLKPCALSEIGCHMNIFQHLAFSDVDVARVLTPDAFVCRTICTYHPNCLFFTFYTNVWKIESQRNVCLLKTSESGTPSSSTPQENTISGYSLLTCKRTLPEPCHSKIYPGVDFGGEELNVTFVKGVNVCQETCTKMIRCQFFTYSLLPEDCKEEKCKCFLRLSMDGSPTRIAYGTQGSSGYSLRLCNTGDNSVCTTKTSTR

Row | SMILES | IC50 (Human plasma kallikrein) [nM] | IC50 (human Factor XIa) [nM]
1 | Cc1ncc(-c2c(C(F)F)ccc(Cl)c2F)nc1C(=O)Nc1cnn(C(C)c2cnc(N3C[C@H]4C[C@H]4C3=O)c(F)c2)c1 (single isomer, unassigned) [Example 52, 6-(3-Chloro-6-(difluoromethyl)-2-fluorophenyl)-N-(1-((R or S)-1-(S-fluoro-6-((1R,5S)-2-oxo-3-azabicyclo[3.1.0]hexan-3-yl)pyridin-3-yl)ethyl)-1H-pyrazol-4-yl)-3-methylpyrazine-2-carboxamide] | 1.1 | 4830
2 | Cc1nc(N2C[C@H]3C[C@H]3C2=O)cnc1C(C)n1cc(NC(=O)c2cncc(-c3c(C(F)F)ccc(Cl)c3F)n2)cn1 (single isomer, unassigned) [Example 53, 6-(3-Chloro-6-(difluoromethyl)-2-fluorophenyl)-N-(1-((S or R)-1-(3-methyl-5-((1R,5S)-2-oxo-3-azabicyclo[3.1.0]hexan-3-yl)pyrazin-2-yl)ethyl)-1H-pyrazol-4-yl)pyrazine-2-carboxamide] | 38.3 | 6630
3 | Cc1nc(C(C)n2cc(NC(=O)c3nc(-c4c(C(F)F)ccc(Cl)c4F)cnc3C)cn2)ccc1N1C[C@H]2C[C@H]2C1=O (single isomer, unassigned) [Example 58, 6-(3-Chloro-6-(difluoromethyl)-2-fluorophenyl)-3-methyl-N-(1-((S or R)-1-(6-methyl-5-((1R,5S)-2-oxo-3-azabicyclo[3.1.0]hexan-3-yl)pyridin-2-yl)ethyl)-1H-pyrazol-4-yl)pyrazine-2-carboxamide] | 0.6 | > 10000
4 | Cc1nc(C(C)n2cc(NC(=O)c3nc(-c4c(C(F)F)ccc(Cl)c4F)cnc3C)cn2)ccc1N1C[C@H]2C[C@H]2C1=O (single isomer, unassigned) [Example 59, 6-(3-Chloro-6-(difluoromethyl)-2-fluorophenyl)-3-methyl-N-(1-((R or S)-1-(6-methyl-5-((1R,5S)-2-oxo-3-azabicyclo[3.1.0]hexan-3-yl)pyridin-2-yl)ethyl)-1H-pyrazol-4-yl)pyrazine-2-carboxamide] | 3.2 | > 10000
5 | Cc1nc(C(C)n2cc(NC(=O)c3cncc(-c4c(C(F)F)ccc(Cl)c4F)n3)cn2)ccc1N1C[C@H]2C[C@H]2C1=O (single isomer, unassigned) [Example 61, 6-(3-Chloro-6-(difluoromethyl)-2-fluorophenyl)-N-(1-((R or S)-1-(6-methyl-5-((1R,5S)-2-oxo-3-azabicyclo[3.1.0]hexan-3-yl)pyridin-2-yl)ethyl)-1H-pyrazol-4-yl)pyrazine-2-carboxamide] | 0.7 | > 10000
6 | Cc1cc(C(C)n2cc(NC(=O)c3cncc(-c4c(C(F)F)ccc(Cl)c4F)n3)cn2)cnc1N1C[C@H]2C[C@H]2C1=O (single isomer, unassigned) [Example 66, 6-(3-Chloro-6-(difluoromethyl)-2-fluorophenyl)-N-(1-((S or R)-1-(5-methyl-6-((1R,5S)-2-oxo-3-azabicyclo[3.1.0]hexan-3-yl)pyridin-3-yl)ethyl)-1H-pyrazol-4-yl)pyrazine-2-carboxamide] | 0.6 | 1630
7 | Cc1cc(C(C)n2cc(NC(=O)c3cncc(-c4c(C(F)F)ccc(Cl)c4F)n3)cn2)cnc1N1C[C@H]2C[C@H]2C1=O (single isomer, unassigned) [Example 67, 6-(3-Chloro-6-(difluoromethyl)-2-fluorophenyl)-N-(1-((R or S)-1-(5-methyl-6-((1R,5S)-2-oxo-3-azabicyclo[3.1.0]hexan-3-yl)pyridin-3-yl)ethyl)-1H-pyrazol-4-yl)pyrazine-2-carboxamide] | 2.1 | 389
8 | Cc1cc(N2C[C@H]3C[C@H]3C2=O)ncc1C(C)n1cc(NC(=O)c2cncc(-c3c(C(F)F)ccc(Cl)c3F)n2)cn1 (single isomer, unassigned) [Example 68, 6-(3-Chloro-6-(difluoromethyl)-2-fluorophenyl)-N-(1-((S or R)-1-(4-methyl-6-((1R,5S)-2-oxo-3-azabicyclo[3.1.0]hexan-3-yl)pyridin-3-yl)ethyl)-1H-pyrazol-4-yl)pyrazine-2-carboxamide] | 1.1 | 5250
9 | CC(c1cnc(N2CC3CC3C2=O)nc1)n1cc(NC(=O)c2cncc(-c3c(OC(F)F)ccc(Cl)c3F)n2)cn1 (single isomer, unassigned) [Example 71, 6-(3-Chloro-6-(difluoromethoxy)-2-fluorophenyl)-N-(1-((S or R)-1-(2-((1R,5S or 1S,5R)-2-oxo-3-azabicyclo[3.1.0]hexan-3-yl)pyrimidin-5-yl)ethyl)-1H-pyrazol-4-yl)pyrazine-2-carboxamide] | 39 | 4300
10 | CC(c1cnc(N2CC3CC3C2=O)nc1)n1cc(NC(=O)c2cncc(-c3c(OC(F)F)ccc(Cl)c3F)n2)cn1 (single isomer, unassigned) [Example 72, 6-(3-Chloro-6-(difluoromethoxy)-2-fluorophenyl)-N-(1-((R or S)-1-(2-((1R,5S or 1S,5R)-2-oxo-3-azabicyclo[3.1.0]hexan-3-yl)pyrimidin-5-yl)ethyl)-1H-pyrazol-4-yl)pyrazine-2-carboxamide] | 3.7 | 2740
11 | CC(c1cnc(N2CC3CC3C2=O)nc1)n1cc(NC(=O)c2cncc(-c3c(OC(F)F)ccc(Cl)c3F)n2)cn1 (single isomer, unassigned) [Example 73, 6-(3-Chloro-6-(difluoromethoxy)-2-fluorophenyl)-N-(1-((S or R)-1-(2-((1S,5R or 1R,5S)-2-oxo-3-azabicyclo[3.1.0]hexan-3-yl)pyrimidin-5-yl)ethyl)-1H-pyrazol-4-yl)pyrazine-2-carboxamide] | 23.1 | 2270

Other lines, results leading:

Row | IC50 (Human plasma kallikrein) [nM] | IC50 (human Factor XIa) [nM] | SMILES
12 | 5.8 | 5360 | CCc1nc(C(C)n2cc(NC(=O)c3cncc(-c4c(C(F)F)ccc(Cl)c4F)n3)cn2)cnc1N1C[C@H]2C[C@H]2C1=O (single isomer, unassigned) [Example 55, 6-(3-Chloro-6-(difluoromethyl)-2-fluorophenyl)-N-(1-((S or R)-1-(6-ethyl-5-((1R,5S)-2-oxo-3-azabicyclo[3.1.0]hexan-3-yl)pyrazin-2-yl)ethyl)-1H-pyrazol-4-yl)pyrazine-2-carboxamide]
13 | 1.5 | > 10000 | CCc1nc(C(C)n2cc(NC(=O)c3cncc(-c4c(C(F)F)ccc(Cl)c4F)n3)cn2)cnc1N1C[C@H]2C[C@H]2C1=O (single isomer, unassigned) [Example 56, 6-(3-Chloro-6-(difluoromethyl)-2-fluorophenyl)-N-(1-((R or S)-1-(6-ethyl-5-((1R,5S)-2-oxo-3-azabicyclo[3.1.0]hexan-3-yl)pyrazin-2-yl)ethyl)-1H-pyrazol-4-yl)pyrazine-2-carboxamide]
14 | 5.5 | > 10000 | Cc1nc(C(C)n2cc(NC(=O)c3cncc(-c4c(C(F)F)ccc(Cl)c4F)n3)cn2)ccc1N1C[C@H]2C[C@H]2C1=O (single isomer, unassigned) [Example 60, 6-(3-Chloro-6-(difluoromethyl)-2-fluorophenyl)-N-(1-((S or R)-1-(6-methyl-5-((1R,5S)-2-oxo-3-azabicyclo[3.1.0]hexan-3-yl)pyridin-2-yl)ethyl)-1H-pyrazol-4-yl)pyrazine-2-carboxamide]
15 | 4.2 | 7630 | Cc1cc(N2C[C@H]3C[C@H]3C2=O)cnc1C(C)n1cc(NC(=O)c2cncc(-c3c(C(F)F)ccc(Cl)c3F)n2)cn1 (single isomer, unassigned) [Example 62, 6-(3-Chloro-6-(difluoromethyl)-2-fluorophenyl)-N-(1-((S or R)-1-(3-methyl-5-((1R,5S)-2-oxo-3-azabicyclo[3.1.0]hexan-3-yl)pyridin-2-yl)ethyl)-1H-pyrazol-4-yl)pyrazine-2-carboxamide]
16 | 18.6 | 7680 | CC(c1cnc(N2CC3CC3C2=O)nc1)n1cc(NC(=O)c2cncc(-c3c(C(F)(F)F)ccc(Cl)c3F)n2)cn1 (single isomer, unassigned) [Example 70, 6-(3-Chloro-2-fluoro-6-(trifluoromethyl)phenyl)-N-(1-((S orR)-1-(2-((1R,5S or 1S,5R)-2-oxo-3-azabicyclo[3.1.0]hexan-3-yl)pyrimidin-5-yl)ethyl)-1H-pyrazol-4-yl)pyrazine-2-carboxamide]
